Source: patent US10071074B2, “Thieno-indole moieties and methods of treating using the same” (NERVIANO MEDICAL SCIENCES S.R.L., priority 2012, dated 2018)
Where a name gives a salt, the structure may show the parent alone. Read-outs that look alike come from different tables or passages of the source.

Tests used:
[1] = tested on: A2780 human ovarian cancer cells; experiment: In vitro cell proliferation assay (CellTiter-Glo); type: cell-based; conditions: read-out: IC50 value
Procedure: A2780 human ovarian and MCF7 human breast cancer cells (1250 cells/well) were seeded in white 384 well-plates in complete medium (RPMI1640 or EMEM plus 10% Fetal bovine serum) and treated with compounds dissolved in 0.1% DMSO, 24 h after seeding. The cells were incubated at 37° C. and 5% CO2 and after 72 h the plates were processed using CellTiter-Glo assay (Promega) following the manufacturer's instruction.
CellTiter-Glo is a homogenous method based on the quantification of the ATP present, an indicator of metabolitically active cells. ATP is quantified using a system based on luciferase and D-luciferin resulting into light generation. The luminescent signal is proportional to the number of cells present in culture.
Briefly, 25 μL/well of reagent solution are added to each well and after 5 minutes shaking microplates are read by a luminometer. The luminescent signal is proportional to the number of cells present in culture.

cathepsin B = cathepsin B (Homo sapiens, UniProt P07858); experiment: Release of a drug moiety from a conjugate in presence of cathepsin; type: biochemical; conditions: 0.2 unit cathepsin B, sodium acetate buffer pH 5.5, 1 mM Cys, 2 hours at 40° C., HPLC ESI-MS analysis
Procedure: The conjugate A1 was incubated with 0.2 unit of cathepsin B in sodium acetate buffer pH 5.5 and 1 mM Cys for 2 hours at 40° C.
Disappearance of the conjugate A1 and release of the corresponding compound of formula (II), i.e. compd. 37, as well as of its precursor A3, confirms the breaking of the Z peptidic linker of the conjugate.

[2] = A2780 human ovarian cancer cells, 72 h treatment, CellTiter-Glo

Cc1csc2c(O)cc3c(c12)[C@H](CCl)CN3C(=O)c1ccc2c(NC(=O)c3ccc4cc[nH]c4c3)c[nH]c2c1 [Compd. 1]
IC50 [1, 2]: < 50 nM

Cc1csc2c1[C@@]13C[C@@H]1CN(C(=O)c1ccc4c(NC(=O)c5ccc6cc[nH]c6c5)c[nH]c4c1)C3=CC2=O [Compd. 5, N-(6-{[(3bR,4aS)-3-methyl-8-oxo-4a,5-dihydro-4H-cyclopropa[c]thieno[3,2-e]indol-6(8H)-yl]carbonyl}-1H-indol-3-yl)-1H-indole-6-carboxamide]
IC50 [1, 2]: < 50 nM

Cc1csc2c1[C@]13C[C@H]1CN(C(=O)/C=C/c1c[nH]c4ncccc14)C3=CC2=O [Compd. 7, (3bS,4aR)-3-methyl-6-[(2E)-3-(1H-pyrrolo[2,3-b]pyridin-3-yl)prop-2-enoyl]-4,4a,5,6-tetrahydro-8H-cyclopropa[c]thieno[3,2-e]indo-8-one]
IC50 [1, 2]: < 50 nM

Cc1csc2c(O)cc3c(c12)[C@H](CCl)CN3C(=O)c1cc2cc(NC(=O)c3cc4cc(NC(=O)OC(C)(C)C)ccc4[nH]3)ccc2[nH]1 [Compd. 18]
IC50 [1, 2]: < 0.01 nM

Cc1csc2c(OC(=O)N3CCN(C)CC3)cc3c(c12)[C@H](CCl)CN3C(=O)c1cc2cc(NC(=O)c3cc4cc(NC(=O)OC(C)(C)C)ccc4[nH]3)ccc2[nH]1 [Compd. 22, (8S)-6-({5-[({5-[(tert-butoxycarbonyl)amino]-1H-indol-2-yl}carbonyl)amino]-1H-indol-2-yl}carbonyl)-8-(chloromethyl)-1-methyl-7,8-dihydro-6H-thieno[3,2-e]indol-4-yl 4-methylpiperazine-1-carboxylate]
IC50 ([1]; Homo sapiens, A2780, 72 h): < 0.1 nM

Cc1csc2c(O)cc3c(c12)[C@H](CCl)CN3C(=O)c1cc2cc(OCCN3CCCC3)ccc2[nH]1 [Compd. 37, [(8S)-8-(chloromethyl)-4-hydroxy-1-methyl-7,8-dihydro-6H-thieno[3,2-e]indol-6-yl]{5-[2-(pyrrolidin-1-yl)ethoxy]-1H-indol-2-yl}methanone hydrochloride]
IC50 [1, 2]: < 0.01 nM

Cc1csc2c1[C@]13C[C@H]1CN(C(=O)c1cc(NC(=O)c4cc(NC(=O)c5cc([N+](=O)[O-])cn5C)cn4C)cn1C)C3=CC2=O [compound 6, 1-methyl-N-(1-methyl-5-{[(3bS,4aR)-3-methyl-8-oxo-4a,5-dihydro-4H-cyclopropa[c]thieno[3,2-e]indol-6(8H)-yl]carbonyl}-1H-pyrrol-3-yl)-4-4{[(1-methyl-4-nitro-1H-pyrrol-2-yl)carbonyl]amino}-1H-pyrrole-2-carboxamide]
IC50 [1, 2]: < 50 nM

Cc1csc2c1[C@@]13C[C@@H]1CN(C(=O)/C=C/c1c[nH]c4ncccc14)C3=CC2=O [compound 8, (3bR,4aS)-3-methyl-6-[(2E)-3-(1H-pyrrolo[2,3-b]pyridin-3-yl)prop-2-enoyl]-4,4a,5,6-tetrahydro-8H-cyclopropa[c]thieno[3,2-e]indol-8-one]
IC50 [1, 2]: < 0.01 nM

Cc1csc2c1[C@]13C[C@H]1CN(C(=O)Nc1cc(C(=O)Nc4cc(C(=O)Nc5cc(C(=O)NCCC(N)=O)n(C)c5)n(C)c4)n(C)c1)C3=CC2=O [compound 9, (3bS,4aR)-N-(5-{[5-({5-[(3-amino-3-oxopropyl)carbamoyl]-1-methyl-1H-pyrrol-3-yl}carbamoyl)-1-methyl-1H-pyrrol-3-yl]carbamoyl}-1-methyl-1H-pyrrol-3-yl)-3-methyl-8-oxo-4a,5-dihydro-4H-cyclopropa[c]thieno[3,2-e]indole-6(8H)-carboxamide]
IC50 [1, 2]: < 50 nM

Cc1csc2c(O)cc3c(c12)[C@H](CCl)CN3C(=O)c1cc2cc(NC(=O)c3cc4cc(OCCN5CCCC5)ccc4[nH]3)ccc2[nH]1 [compound 17, N-(2-{[(8S)-8-(chloromethyl)-4-hydroxy-1-methyl-7,8-dihydro-6H-thieno[3,2-e]indol-6-yl]carbonyl}-1H-indol-5-yl)-5-[2-(pyrrolidin-1-yl)ethoxy]-1H-indole-2-carboxamide]
IC50 [1, 2]: < 0.1 nM

Cc1csc2c1[C@@]13C[C@@H]1CN(C(=O)c1cc4cc(NC(=O)c5cc6cc(NC(=O)OC(C)(C)C)ccc6[nH]5)ccc4[nH]1)C3=CC2=O [compound 20, tert-butyl {2-[(2-{[(3bR,4aS)-3-methyl-8-oxo-4a,5-dihydro-4H-cyclopropa[c]thieno[3,2-e]indol-6(8H)-yl]carbonyl}-1H-indol-5-yl)carbamoyl]-1H-indol-5-yl}carbamate]
IC50 [1, 2]: < 0.1 nM

Cc1csc2c(OC(=O)N3CCN(C)CC3)cc3c(c12)[C@H](CCl)CN3C(=O)c1cc2cc(NC(=O)c3cc4cc(N)ccc4[nH]3)ccc2[nH]1 [compound 23, (8S)-6-[(5-{[(5-amino-1H-indol-2-yl)carbonyl]amino}-1H-indo-2-yl)carbonyl]-8-(chloromethyl)-1-methyl-7,8-dihydro-6H-thieno[3,2-e]indol-4-yl 4-methylpiperazine-1-carboxylate hydrochloride]
IC50 ([1]; Homo sapiens, A2780, 72 h): < 50 nM

Cc1csc2c(OC(=O)N(C)CCN(C)C(=O)OCc3ccc(NC(=O)[C@H](CCCNC(N)=O)NC(=O)[C@@H](NC(=O)CCCCCN4C(=O)CC(SC[C@H](N)C(=O)O)C4=O)C(C)C)cc3)cc3c(c12)[C@H](CCl)CN3C(=O)c1cc2cc(OCCN3CCCC3)ccc2[nH]1 (stereo partly shown) [conjugate A1]
release of the compound of formula (II) (compd. 37) from the conjugate (cathepsin B): Complete release
